row,SMILES,melting point
1,"CC(O)CNC(=O)NC(=O)C(CC1CCCC1)c1ccc(Cl)c(Cl)c1 (stereo not shown) [Example 19, 1-[3-cyclopentyl-2-(3,4-dichloro-phenyl)-propionyl]-3-(2-hydroxy-propyl)-urea]",116.7 to 119.9 °C
2,"CNC(=O)NC(=O)C(CC1CCCC1)c1ccc(Cl)c([N+](=O)[O-])c1 (stereo not shown) [Example 34, 1-[2-(4-chloro-3-nitro-phenyl)-3-cyclopentyl-propionyl]-3-methyl-urea]",61 to 64 °C
3,"CNC(=O)NC(=O)C(CC1CCCC1)c1cccc(S(=O)(=O)C(F)(F)F)c1 (stereo not shown) [Example 31, 1-[3-cyclopentyl-2-(3-trifluoromethanesulfonyl-phenyl)-propionyl]-3-methyl-urea]",59 to 62 °C
4,"CNC(=O)NC(=O)C(CC1CCCC1)c1ccc(S(C)(=O)=O)c(F)c1 (stereo not shown) [Example 42, 1-[3-cyclopentyl-2-(3-fluoro4-methanesulfonyl-phenyl)-propionyl]-3-methyl-urea]",199 to 200 °C
5,"CNC(=O)NC(=O)[C@H](CC1CCCC1)c1ccc(Cl)c(Cl)c1 [Example 13, 1-[3-cyclopentyl-2(R)-(3,4-dichloro-phenyl)-propionyl]-3-methyl-urea]",124.8 to 127.5 °C
6,"CCS(=O)(=O)c1ccc(C(CC2CCCC2)C(=O)NC(=O)NC)cc1 (stereo not shown) [Example 33, 1-[3-cyclopentyl-2-(4-ethanesulfonyl-phenyl)-propionyl]-3-methyl-urea]",200 to 201 °C
7,"CNC(=O)NC(=O)C(CC1CCCC1)c1ccc(S(=O)(=O)C(F)(F)F)cc1 (stereo not shown) [Example 9, 1-[3-cyclopentyl-2-(4-trifluoromethanesulfonyl-phenyl)-propionyl]-3-methyl urea]",191 to 192 °C
8,"CCCCS(=O)(=O)c1ccc(C(CC2CCCC2)C(=O)NC(=O)NC)cc1 (stereo not shown) [Example 39, 1-{2-[4-(butane-1-sulfonyl)-phenyl]-3-cyclopentyl-propionyl}-3-methyl-urea]",189 to 191 °C
9,"CNC(=O)NC(=O)C(CC1CCCC1)c1ccc(C(F)(F)F)c(F)c1 (stereo not shown) [Example 32, 1-[3-cyclopentyl-2-(3-fluoro-4-trifluoromethyl-phenyl)-propionyl]-3-methyl-urea]",187 to 189 °C
10,"CNC(=O)NC(=O)C(CC1CCCC1)c1ccc(SC(F)(F)F)cc1 (stereo not shown) [Example 8, 1-[3-cyclopentyl-2-(4-trifluoromethylsulfanyl-phenyl)-propionyl]-3-methyl urea]",144 to 145 °C
11,"CNC(=O)NC(=O)C(CC1CCCC1)c1ccc(S(C)(=O)=O)c(S(C)(=O)=O)c1 (stereo not shown) [Example 37, 1-[2-(3,4-bis-methanesulfonyl-phenyl)-3-cyclopentyl-propionyl]-3-methyl-urea]",220 to 222 °C
12,"CNC(=O)NC(=O)C(CC1CCCC1)c1ccc(C#N)cc1 (stereo not shown) [Example 43, 1-[2-(4-cyano-phenyl)-3-cyclopentyl-propionyl]-3-methyl-urea]",61 to 65 °C
13,"COC(=O)CNC(=O)NC(=O)C(CC1CCCC1)c1ccc(Cl)c(Cl)c1 (stereo not shown) [Example 21, {3-[3-cyclopentyl-2-(3,4-dichloro-phenyl)-propionyl]-ureido}-acetic acid methyl ester]",134.5 to 136.6 °C
14,"CC(C)CC(C(=O)NC(N)=O)c1ccc(Cl)cc1 (stereo not shown) [Example 16, [2-(4-chloro-phenyl)-4-methyl-pentanoyl]-urea]",164 to 165 °C
15,"CNC(=O)NC(=O)C(CC1CCCC1)c1ccc(Br)cc1 (stereo not shown) [Example 7, 1-[2-(4-bromo-phenyl)-3-cyclopentyl-propionyl]-3-methyl urea]",184 to 186 °C
16,"CNC(=O)NC(=O)C(CC1CCCC1)c1ccc(F)c(F)c1 (stereo not shown) [Example 3, 1-[3-cyclopentyl-2-(3,4-difluoro-phenyl)-propionyl]-3-methyl-urea]",111 to 113 °C

# More lines, now with the values ahead:
row,melting point,SMILES
1,52 to 55 °C,"CNC(=O)NC(=O)C(CC1CCCC1)c1cccc(Cl)c1 (stereo not shown) [Example 2, 1-[2-(3-chloro-phenyl)-3-cyclopentyl-propionyl]-3-methyl-urea]"
2,241 to 242 °C,"CNC(=O)NC(=O)C(CC1CCCC1)c1ccc(S(C)(=O)=O)c([N+](=O)[O-])c1 (stereo not shown) [Example 14, 1-[3-cyclopentyl-2-(4-methanesulfonyl-3-nitrophenyl)-propionyl]-3-methyl-urea]"
3,145 to 147 °C,"CNC(=O)NC(=O)C(CC1CCCC1)c1ccc(Cl)cc1 (stereo not shown) [Example 4, 1-[2-(4-chloro-phenyl)-3-cyclopentyl-propionyl]-3-methyl-urea]"
4,237 to 239 °C,"CNC(=O)NC(=O)C(CC1CCCC1)c1ccc(S(C)(=O)=O)c(C#N)c1 (stereo not shown) [Example 36, 1-[2-(3-cyano-4-methanesulfonyl-phenyl)-3-cyclopentyl-propionyl]-3-methyl-urea]"
5,185 to 186 °C,"CNC(=O)NC(=O)C(CC1CCCC1)c1ccc(SC)cc1 (stereo not shown) [Example 10, 1-[3-cyclopentyl-2-(4-methylsulfanyl-phenyl)-propionyl]-3-methyl urea]"
6,179 to 183 °C,"CNC(=O)NC(=O)C(CC1CCCC1)c1ccc([N+](=O)[O-])cc1 (stereo not shown) [Example 5, 1-[3-cyclopentyl-2-(4-nitro-phenyl)-propionyl]-3-methyl-urea]"
7,259 to 260 °C,"CNC(=O)NC(=O)C(CC1CCCC1)c1ccc(S(C)(=O)=O)c(Br)c1 (stereo not shown) [Example 35, 1-[2-(3-bromo-4-methanesulfonyl-phenyl)-3-cyclopentyl-propionyl]-3-methyl-urea]"
8,138 to 140 °C,"CC(C)C[C@@H](C(=O)NC(N)=O)c1ccc(Cl)c(Cl)c1 [Example 17, R-[2-(3,4-dichloro-phenyl)-4-methyl-pentanoyl]-urea]"
9,268 to 270 °C,"CNC(=O)NC(=O)C(CC1CCCC1)c1ccc(S(C)(=O)=O)c(C(F)(F)F)c1 (stereo not shown) [Example 40, 1-[3-cyclopentyl-2-(4-methanesulfonyl-3-trifluoromethyl-phenyl)-propionyl]-3-methyl-urea]"
10,205 to 206 °C,"CNC(=O)NC(=O)C(CC1CCCC1)c1ccc(S(C)(=O)=O)cc1 (stereo not shown) [Example 11, 1-[3-cyclopentyl-2-(4-methanesulfonyl-phenyl)-propionyl]-3-methyl urea]"
11,76 to 79 °C,NC(=O)NC(=O)C(CC1CCCCC1)c1ccc(Cl)c(Cl)c1 (stereo not shown) [Example 1]
12,145 to 147 °C,"CNC(=O)NC(=O)C(CC1CCCC1)c1ccccc1 (stereo not shown) [Example 6, 1-(3-cyclopentyl-2-phenyl-propionyl)-3-methyl-urea]"

# Source: patent publication US6528543B1, “Urea derivatives” (Hoffman-La Roche Inc., priority 1999, dated 2003)
